# Reference: patent US20240228489A1, “POSITIVE ALLOSTERIC MODULATORS OF THE MUSCARINIC ACETYLCHOLINE RECEPTOR M1” (Vanderbilt University, priority 2021, published 2024)
# What was measured:
# human mAChR M1 [1] = target: T1, human mAChR M1 (Homo sapiens, UniProt P11229); assay: mAChR M1 cell-based functional assay (calcium mobilization), agonist mode: compound alone, Emax relative to acetylcholine maximum; details: for EC50 / Agonist Activity Human M1 EC50: human mAChR M1; for Emax: relative to the maximum for acetylcholine
# T1 sequence (P11229 1-460): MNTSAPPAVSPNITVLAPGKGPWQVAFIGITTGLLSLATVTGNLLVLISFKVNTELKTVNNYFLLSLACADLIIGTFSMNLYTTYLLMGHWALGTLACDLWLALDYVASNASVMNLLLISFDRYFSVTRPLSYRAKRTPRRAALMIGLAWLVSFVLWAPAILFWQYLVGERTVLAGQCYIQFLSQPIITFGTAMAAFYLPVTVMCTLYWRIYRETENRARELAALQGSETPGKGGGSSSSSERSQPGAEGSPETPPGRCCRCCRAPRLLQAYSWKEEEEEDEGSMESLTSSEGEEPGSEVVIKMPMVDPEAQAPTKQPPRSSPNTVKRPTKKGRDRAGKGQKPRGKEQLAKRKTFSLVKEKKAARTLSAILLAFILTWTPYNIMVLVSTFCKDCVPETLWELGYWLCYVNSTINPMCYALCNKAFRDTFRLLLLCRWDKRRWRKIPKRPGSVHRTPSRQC
# Outline: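 Agonist activity is the concentration-dependent rise in intracellular calcium (Fluo-4, 1 Hz read) after compound addition, measured before any acetylcholine was added, in stable hM1 CHO-K1 cells. Curves were 11-point, 1:3 dilutions fitted by four-parameter logistic. Emax is given as a fraction of maximal acetylcholine response.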
# human mAChR M1 [2] = target: T1, human mAChR M1; assay: mAChR M1 cell-based functional assay (calcium mobilization), PAM mode: increase in the EC20 acetylcholine response
# Outline: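 PAM readout is the concentration-dependent rise in the EC20 acetylcholine calcium signal, fitted to a four-parameter logistic (EC50, Emax). Compounds were preincubated from 4 s before ACh at 144 s (EC20) and 230 s (EC80). hM1-expressing CHO-K1 cells loaded with Fluo-4, FDSS ratio read.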
Compound,EC50 (human mAChR M1 [1]),Emax (human mAChR M1 [1]),EC50 (human mAChR M1 [2]),Emax (human mAChR M1 [2]),Agonist Activity Human M1 EC50 (human mAChR M1 [1])
"[2H]C1([2H])c2ncccc2C(=O)N1Cc1c(F)cc(-c2cccn3nc(C)cc23)cc1F [Compound 235, 6-(2,6-Difluoro-4-(2-methylpyrazolo[1,5-a]pyridin-4-yl)benzyl)-6,7-dihydro-5H-pyrrolo[3,4-b]pyridin-5-one-7,7-d2]",> 10 µM,23%,0.744 µM,73%,–
"[2H]C([2H])([2H])c1cc2c(-c3cc(F)c(CN4C(=O)c5cccnc5C4([2H])[2H])c(F)c3)cccn2n1 [Compound 236, 6-(2,6-Difluoro-4-(2-(methyl-d3)pyrazolo[1,5-a]pyridin-4-yl)benzyl)-6,7-dihydro-5H-pyrrolo[3,4-b]pyridin-5-one-7,7-d2]",9.56 µM,22%,0.745 µM,76%,–
"[2H]C1([2H])c2ncccc2C(=O)N1Cc1ccc(-c2ccc3c(cnn3C)c2)cc1 [Compound 237, 6-(4-(1-methyl-1H-indazol-5-yl)benzyl)-6,7-dihydro-5H-pyrrolo[3,4-b]pyridin-5-one-7,7-d2]",–,2%,> 10 µM,47%,Inactive
"[2H]C1([2H])c2ncccc2C(=O)N1Cc1ccc(-c2ccc3nn(C)cc3c2C)cc1 [Compound 238, 6-(4-(2,4-dimethyl-2H-indazol-5-yl)benzyl)-6,7-dihydro-5H-pyrrolo[3,4-b]pyridin-5-one-7,7-d2]",–,2%,> 10 µM,39%,Inactive
"[2H]C1([2H])c2ncccc2C(=O)N1Cc1ccc(-c2cccc3nncn23)cc1 [Compound 239, 6-(4-([1,2,4]triazolo[4,3-a]pyridin-5-yl)benzyl)-6,7-dihydro-5H-pyrrolo[3,4-b]pyridin-5-one-7,7-d2]",–,3%,> 10 µM,44%,Inactive
"[2H]c1nnc2cccc(-c3ccc(CN4C(=O)c5cccnc5C4([2H])[2H])cc3)n12 [Compound 240, 6-(4-([1,2,4]triazolo[4,3-a]pyridin-5-yl-3-d)benzyl)-6,7-dihydro-5H-pyrrolo[3,4-b]pyridin-5-one-7,7-d2]",–,3%,> 10 µM,27%,Inactive
"[2H]C1([2H])c2ncccc2C(=O)N1Cc1ccc(-c2cccc3ccnn23)cc1 [Compound 241, 6-(4-(pyrazolo[1,5-a]pyridin-7-yl)benzyl)-6,7-dihydro-5H-pyrrolo[3,4-b]pyridin-5-one-7,7-d2]",–,3%,> 10 µM,41%,Inactive
"[2H]C1([2H])c2ncccc2C(=O)N1Cc1ccc(-c2ccc3nn(C)cc3c2C)cc1F [Compound 242, 6-(4-(2,4-dimethyl-2H-indazol-5-yl)-2-fluorobenzyl)-6,7-dihydro-5H-pyrrolo[3,4-b]pyridin-5-one-7,7-d2]",–,3%,> 10 µM,43%,Inactive
"[2H]C1([2H])c2ncccc2C(=O)N1Cc1c(F)cc(-c2cccc3c2cnn3C(F)F)cc1F [Compound 243, 6-(4-(1-(difluoromethyl)-1H-indazol-4-yl)-2,6-difluorobenzyl)-6,7-dihydro-5H-pyrrolo[3,4-b]pyridin-5-one-7,7-d2]",–,5%,> 10 µM,34%,Inactive
"[2H]C1([2H])c2ncccc2C(=O)N1Cc1c(F)cc(-c2ccc(C(F)(F)F)c3c2cnn3C([2H])([2H])[2H])cc1F [Compound 244, 6-(2,6-difluoro-4-(1-(methyl-d3)-7-(trifluoromethyl)-1H-indazol-4-yl)benzyl)-6,7-dihydro-5H-pyrrolo[3,4-b]pyridin-5-one-7,7-d2]",–,2%,> 10 µM,34%,Inactive
"[2H]C1([2H])c2ncccc2C(=O)N1Cc1c(F)cc(-c2cc(F)c(Cl)c3nn(C)cc23)cc1F [Compound 245, 6-(4-(7-chloro-6-fluoro-2-methyl-2H-indazol-4-yl)-2,6-difluorobenzyl)-6,7-dihydro-5H-pyrrolo[3,4-b]pyridin-5-one-7,7-d2]",–,1%,> 10 µM,47%,Inactive
"[2H]C1([2H])c2ncccc2C(=O)N1Cc1c(F)cc(-c2cc(Cl)cc3c2cnn3C([2H])([2H])[2H])cc1F [Compound 246, 6-(4-(6-chloro-1-(methyl-d3)-1H-indazol-4-yl)-2,6-difluorobenzyl)-6,7-dihydro-5H-pyrrolo[3,4-b]pyridin-5-one-7,7-d2]",–,2%,> 10 µM,25%,Inactive
"[2H]C1([2H])c2ncccc2C(=O)N1Cc1c(F)cc(-c2cc(F)cc3c2cnn3C([2H])([2H])[2H])cc1F [Compound 247, 6-(2,6-difluoro-4-(6-fluoro-1-(methyl-d3)-1H-indazol-4-yl)benzyl)-6,7-dihydro-5H-pyrrolo[3,4-b]pyridin-5-one-7,7-d2]",–,2%,> 10 µM,29%,Inactive
"[2H]C1([2H])c2ncccc2C(=O)N1Cc1c(F)cc(-c2cc(F)c(Cl)c3nn(C([2H])([2H])[2H])cc23)cc1F [Compound 248, 6-(4-(7-chloro-6-fluoro-2-(methyl-d3)-2H-indazol-4-yl)-2,6-difluorobenzyl)-6,7-dihydro-5H-pyrrolo[3,4-b]pyridin-5-one-7,7-d2]",–,2%,> 10 µM,34%,Inactive
"[2H]C1([2H])c2ncccc2C(=O)N1Cc1c(F)cc(-c2cc(F)c(Cl)c3c2cnn3C([2H])([2H])[2H])cc1F [Compound 249, 6-(4-(7-chloro-6-fluoro-1-(methyl-d3)-1H-indazol-4-yl)-2,6-difluorobenzyl)-6,7-dihydro-5H-pyrrolo[3,4-b]pyridin-5-one-7,7-d2]",–,14%,> 10 µM,20%,Inactive
"[2H]C1([2H])c2ncccc2C(=O)N1Cc1c(F)cc(-c2ccc(OC(C)C)c3c2cnn3C([2H])([2H])[2H])cc1F [Compound 250, 6-(2,6-difluoro-4-(7-isopropoxy-1-(methyl-d3)-1H-indazol-4-yl)benzyl)-6,7-dihydro-5H-pyrrolo[3,4-b]pyridin-5-one-7,7-d2]",–,3%,> 10 µM,51%,Inactive
"[2H]C1([2H])c2ncccc2C(=O)N1Cc1c(F)cc(-c2ccc(OC(F)(F)F)c3c2cnn3C([2H])([2H])[2H])cc1F [Compound 251, 6-(2,6-difluoro-4-(1-(methyl-d3)-7-(trifluoromethoxy)-1H-indazol-4-yl)benzyl)-6,7-dihydro-5H-pyrrolo[3,4-b]pyridin-5-one-7,7-d2]",–,2%,> 10 µM,12%,Inactive
"[2H]C1([2H])c2ncccc2C(=O)N1Cc1c(F)cc(-c2cc(F)c(F)c3c2cnn3C([2H])([2H])[2H])cc1F [Compound 252, 6-(4-(6,7-difluoro-1-(methyl-d3)-1H-indazol-4-yl)-2,6-difluorobenzyl)-6,7-dihydro-5H-pyrrolo[3,4-b]pyridin-5-one-7,7-d2]",–,2%,> 10 µM,15%,Inactive
"[2H]C1([2H])c2ncccc2C(=O)N1Cc1c(F)cc(-c2cnc(OC)c3c2cnn3C)cc1F [Compound 253, 6-(2,6-difluoro-4-(7-methoxy-1-methyl-1H-pyrazolo[3,4-c]pyridin-4-yl)benzyl)-6,7-dihydro-5H-pyrrolo[3,4-b]pyridin-5-one-7,7-d2]",–,2%,> 10 µM,27%,Inactive
